Experimental data: patent publication US11542259B2, “Compounds for the treatment of kinase-dependent disorders” (Exelixis, Inc., priority 2018, dated 2023)

Assays:
Mer = Mer (Homo sapiens (Human), UniProt Q12866); assay: Mer autophosphorylation ELISA in transient transfected 293A cells; type: cell-based; conditions: cellular, MERTK transfected 293A cells
How it was run: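 293A cells transiently transfected with human MERTK DNA, then treated 1 h with 8-point compound dilutions in serum-free medium (0.3% DMSO). Phospho-Mer in lysates quantified by sandwich ELISA against phospho-Mer standard; normalised to DMSO (100%) and reference inhibitor (0%), IC50 from 4-parameter logistic fit.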

[1] = target: Human Met (residues R974-S1390 with A1209G and V1290L) (Homo sapiens, UniProt P08581); assay: Human Met kinase assay (33P radiometric, KinaseProfiler); type: biochemical; conditions: 10 μM ATP, read-out: c-Met IC50
Met = Met (Homo sapiens (Human), UniProt P08581); assay: Met autophosphorylation ELISA in PC-3 cells; type: cell-based; conditions: cellular, HGF stimulated, read-out: c-Met IC50
How it was run: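 Phospho-Met (panTyr) sandwich ELISA on lysates of PC-3 cells given 100 ng/mL HGF for 10 min after 1 h compound exposure (8-point curve, 0.3% DMSO) following 3 h serum starvation. Normalised to HGF-stimulated DMSO and reference-inhibitor wells; 4-parameter logistic IC50.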

[2] = target: Human Mer (residues R557-E882 with H628Q and R794A) (Homo sapiens (Human), UniProt Q12866); assay: Human Mer kinase assay (33P radiometric, KinaseProfiler); type: biochemical; conditions: 10 μM ATP
Sequence of Human Mer (residues R557-E882 with H628Q and R794A) (Q12866 557-882, stated change not applied): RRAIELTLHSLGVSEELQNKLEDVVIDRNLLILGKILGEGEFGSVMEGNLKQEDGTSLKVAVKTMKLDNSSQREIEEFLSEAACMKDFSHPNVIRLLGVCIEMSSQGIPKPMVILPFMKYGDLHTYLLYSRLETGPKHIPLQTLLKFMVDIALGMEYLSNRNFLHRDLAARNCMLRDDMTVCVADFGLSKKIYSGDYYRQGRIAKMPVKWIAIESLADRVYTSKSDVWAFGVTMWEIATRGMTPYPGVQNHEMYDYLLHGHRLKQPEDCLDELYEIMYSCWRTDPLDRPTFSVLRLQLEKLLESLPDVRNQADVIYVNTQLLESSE

Sequence of Mer (Q12866 21-999): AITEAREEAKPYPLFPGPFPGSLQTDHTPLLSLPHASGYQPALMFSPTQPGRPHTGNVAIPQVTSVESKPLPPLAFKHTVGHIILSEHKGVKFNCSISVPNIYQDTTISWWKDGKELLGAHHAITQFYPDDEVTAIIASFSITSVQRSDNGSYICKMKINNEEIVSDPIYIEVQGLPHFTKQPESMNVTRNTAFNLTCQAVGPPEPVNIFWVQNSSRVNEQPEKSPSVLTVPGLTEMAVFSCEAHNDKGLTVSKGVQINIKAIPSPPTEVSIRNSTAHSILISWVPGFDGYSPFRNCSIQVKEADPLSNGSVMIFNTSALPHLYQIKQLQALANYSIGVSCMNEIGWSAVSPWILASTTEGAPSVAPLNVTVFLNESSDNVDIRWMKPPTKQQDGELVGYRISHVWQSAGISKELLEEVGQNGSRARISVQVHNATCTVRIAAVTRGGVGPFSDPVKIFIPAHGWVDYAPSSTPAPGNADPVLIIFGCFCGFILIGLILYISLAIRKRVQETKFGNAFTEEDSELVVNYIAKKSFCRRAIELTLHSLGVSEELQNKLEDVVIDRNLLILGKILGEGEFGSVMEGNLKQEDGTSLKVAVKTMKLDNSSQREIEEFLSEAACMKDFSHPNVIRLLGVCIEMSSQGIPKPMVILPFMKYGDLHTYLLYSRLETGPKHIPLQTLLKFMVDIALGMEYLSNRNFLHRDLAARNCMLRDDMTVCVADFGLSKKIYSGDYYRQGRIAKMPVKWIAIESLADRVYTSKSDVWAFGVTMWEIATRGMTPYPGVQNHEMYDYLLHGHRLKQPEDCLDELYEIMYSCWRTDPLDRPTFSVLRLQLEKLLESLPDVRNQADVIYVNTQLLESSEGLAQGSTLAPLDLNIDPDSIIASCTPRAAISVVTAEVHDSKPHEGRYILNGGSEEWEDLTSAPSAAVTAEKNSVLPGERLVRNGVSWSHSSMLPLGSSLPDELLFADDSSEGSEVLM
Sequence of Met (P08581 25-1390): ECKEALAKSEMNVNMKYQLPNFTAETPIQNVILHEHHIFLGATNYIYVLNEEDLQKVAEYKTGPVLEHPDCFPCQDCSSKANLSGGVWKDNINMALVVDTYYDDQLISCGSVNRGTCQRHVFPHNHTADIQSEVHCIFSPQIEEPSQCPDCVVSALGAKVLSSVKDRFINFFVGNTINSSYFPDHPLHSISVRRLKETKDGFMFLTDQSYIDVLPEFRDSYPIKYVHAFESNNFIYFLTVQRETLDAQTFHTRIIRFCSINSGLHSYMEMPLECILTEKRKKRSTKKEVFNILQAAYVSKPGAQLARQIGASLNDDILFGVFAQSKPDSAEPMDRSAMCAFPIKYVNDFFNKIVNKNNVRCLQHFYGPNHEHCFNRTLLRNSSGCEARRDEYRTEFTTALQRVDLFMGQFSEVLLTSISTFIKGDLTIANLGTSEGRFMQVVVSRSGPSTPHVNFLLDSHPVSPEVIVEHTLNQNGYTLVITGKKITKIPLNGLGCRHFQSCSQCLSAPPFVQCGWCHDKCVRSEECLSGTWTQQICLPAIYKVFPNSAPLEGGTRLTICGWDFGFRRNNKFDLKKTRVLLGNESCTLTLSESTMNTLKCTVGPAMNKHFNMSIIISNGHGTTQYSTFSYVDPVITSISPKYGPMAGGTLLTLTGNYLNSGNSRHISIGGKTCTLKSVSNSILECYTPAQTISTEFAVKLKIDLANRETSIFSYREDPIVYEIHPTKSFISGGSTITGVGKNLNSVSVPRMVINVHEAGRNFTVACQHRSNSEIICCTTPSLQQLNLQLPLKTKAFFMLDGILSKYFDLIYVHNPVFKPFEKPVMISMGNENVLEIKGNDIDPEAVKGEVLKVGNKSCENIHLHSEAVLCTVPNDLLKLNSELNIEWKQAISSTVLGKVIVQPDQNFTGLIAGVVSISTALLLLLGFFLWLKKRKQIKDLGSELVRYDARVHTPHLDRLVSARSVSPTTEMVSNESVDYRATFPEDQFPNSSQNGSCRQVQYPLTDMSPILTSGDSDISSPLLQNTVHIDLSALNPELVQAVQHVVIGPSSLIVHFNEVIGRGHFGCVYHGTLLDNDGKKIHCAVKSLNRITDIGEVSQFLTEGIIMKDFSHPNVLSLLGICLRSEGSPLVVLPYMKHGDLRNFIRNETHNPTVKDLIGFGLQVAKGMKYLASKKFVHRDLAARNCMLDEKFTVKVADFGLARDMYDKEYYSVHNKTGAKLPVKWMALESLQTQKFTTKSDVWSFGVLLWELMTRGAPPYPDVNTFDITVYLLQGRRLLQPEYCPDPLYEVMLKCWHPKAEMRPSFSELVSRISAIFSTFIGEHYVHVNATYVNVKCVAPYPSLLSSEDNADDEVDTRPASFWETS

| Structure (SMILES) | IC50 (Mer) | IC50 [1] | IC50 (Met) | IC50 [2] |
| --- | --- | --- | --- | --- |
| COc1cc2nccc(Oc3ccc(NC(=O)C4(C(=O)Nc5ccc(F)cc5)CC4)cc3)c2cc1C(N)=O [Compound 7, 1-N-[4-(6-carbamoyl-7-methoxyquinolin-4-yl)oxyphenyl]-1-N′-(4-fluorophenyl)cyclopropane-1,1-dicarboxamide] | ≤ 10 nM | ≤ 10 nM | ≤ 10 nM | ≤ 10 nM |
| CNC(=O)c1cc2c(Oc3ccc(NC(=O)C4(C(=O)Nc5ccc(F)cc5)CC4)cc3)ccnc2cc1OC [Compound 8, 1-N′-(4-fluorophenyl)-1-N-[4-[7-methoxy-6-(methylcarbamoyl)quinolin-4-yl]oxyphenyl]cyclopropane-1,1-dicarboxamide] | ≤ 10 nM | ≤ 10 nM | 10 to 100 nM | ≤ 10 nM |
| CCNC(=O)c1cc2c(Oc3ccc(NC(=O)C4(C(=O)Nc5ccc(F)cc5)CC4)cc3)ccnc2cc1OC [Compound 9, 1-N-[4-[6-(ethylcarbamoyl)-7-methoxyquinolin-4-yl]oxyphenyl]-1-N′-(4-fluorophenyl)cyclopropane-1,1-dicarboxamide] | ≤ 10 nM |  | 10 to 100 nM |  |
| CONC(=O)c1cc2c(Oc3ccc(NC(=O)C4(C(=O)Nc5ccc(F)cc5)CC4)cc3)ccnc2cc1OC [Compound 17, 1-N′-(4-fluorophenyl)-1-N-[4-[7-methoxy-6-(methoxycarbamoyl)quinolin-4-yl]oxyphenyl]cyclopropane-1,1-dicarboxamide] | 10 to 100 nM |  | 10 to 100 nM |  |
| COc1cc2nccc(Oc3ccc(NC(=O)C4(C(=O)Nc5ccc(F)cc5)CC4)cc3)c2cc1-c1ncco1 [Compound 45, 1-N′-(4-fluorophenyl)-1-N-[4-[7-methoxy-6-(1,3-oxazol-2-yl)quinolin-4-yl]oxyphenyl]cyclopropane-1,1-dicarboxamide] | ≤ 10 nM | ≤ 10 nM | ≤ 10 nM | ≤ 10 nM |
| NC(=O)c1cc2c(Oc3ccc(NC(=O)C4(C(=O)Nc5ccc(F)cc5)CC4)cc3)ccnc2cc1OCCCN1CCOCC1 [Compound 98, 1-N-[4-[6-carbamoyl-7-(3-morpholin-4-ylpropoxy)quinolin-4-yl]oxyphenyl]-1-N′-(4-fluorophenyl)cyclopropane-1,1-dicarboxamide] | 10 to 100 nM | ≤ 10 nM | ≤ 10 nM | ≤ 10 nM |
| COc1cc2nccc(Oc3ccc(NC(=O)C4(C(=O)Nc5ccc(F)cc5)CC4)cc3Cl)c2cc1C(N)=O [Compound 132, 1-N′-[4-(6-carbamoyl-7-methoxyquinolin-4-yl)oxy-3-chlorophenyl]-1-N-(4-fluorophenyl)cyclopropane-1,1-dicarboxamide] | ≤ 10 nM | ≤ 10 nM | ≤ 10 nM | ≤ 10 nM |
| COc1cc2nccc(Oc3ccc(NC(=O)C4(C(=O)Nc5ccc(F)cc5)CC4)cc3F)c2cc1C(N)=O [Compound 133, 1-N′-[4-(6-carbamoyl-7-methoxyquinolin-4-yl)oxy-3-fluorophenyl]-1-N-(4-fluorophenyl)cyclopropane-1,1-dicarboxamide] | ≤ 10 nM | ≤ 10 nM | ≤ 10 nM | ≤ 10 nM |
| CNC(=O)c1cc2c(Oc3ccc(NC(=O)C4(C(=O)Nc5ccc(F)cc5)CC4)cc3Cl)ccnc2cc1OC [Compound 134, 1-N′-[3-chloro-4-[7-methoxy-6-(methylcarbamoyl)quinolin-4-yl]oxyphenyl]-1-N-(4-fluorophenyl)cyclopropane-1,1-dicarboxamide] | ≤ 10 nM | ≤ 10 nM | ≤ 10 nM | ≤ 10 nM |
| CNC(=O)c1cc2c(Oc3ccc(NC(=O)C4(C(=O)Nc5ccc(F)cc5)CC4)cc3F)ccnc2cc1OC [Compound 135, 1-N′-[3-fluoro-4-[7-methoxy-6-(methylcarbamoyl)quinolin-4-yl]oxyphenyl]-1-N-(4-fluorophenyl)cyclopropane-1,1-dicarboxamide] | ≤ 10 nM | ≤ 10 nM | ≤ 10 nM | ≤ 10 nM |
| Cc1cc2c(Oc3ccc(NC(=O)C4(C(=O)Nc5ccc(F)cc5)CC4)cc3)ccnc2cc1C(N)=O [Compound 142, 1-N-[4-(7-carbamoyl-6-methylquinolin-4-yl)oxyphenyl]-1-N′-(4-fluorophenyl)cyclopropane-1,1-dicarboxamide] | 10 to 100 nM | ≤ 10 nM | 10 to 100 nM | ≤ 10 nM |
| NC(=O)c1ccc2c(Oc3ccc(NC(=O)C4(C(=O)Nc5ccc(F)cc5)CC4)cc3)ccnc2c1 [Compound 164, 1-N-[4-(7-carbamoylquinolin-4-yl)oxyphenyl]-1-N′-(4-fluorophenyl)cyclopropane-1,1-dicarboxamide] | 10 to 100 nM | ≤ 10 nM | ≤ 10 nM | ≤ 10 nM |
| CNC(=O)c1ccc2c(Oc3ccc(NC(=O)C4(C(=O)Nc5ccc(F)cc5)CC4)cc3)ccnc2c1 [Compound 165, 1-N′-(4-fluorophenyl)-1-N-[4-[7-(methylcarbamoyl)quinolin-4-yl]oxyphenyl]cyclopropane-1,1-dicarboxamide] | 10 to 100 nM | ≤ 10 nM | ≤ 10 nM | ≤ 10 nM |
| COc1cc2nccc(Oc3ccc(NC(=O)C4(C(=O)Nc5ccc(F)cc5)CC4)cc3)c2cc1-c1cnn(C)c1 [Compound 182, 1-N′-(4-fluorophenyl)-1-N-[4-[7-methoxy-6-(1-methylpyrazol-4-yl)quinolin-4-yl]oxyphenyl]cyclopropane-1,1-dicarboxamide] | ≤ 10 nM | ≤ 10 nM | 10 to 100 nM | ≤ 10 nM |
| COc1cc2nccc(Oc3ccc(NC(=O)C4(C(=O)Nc5ccc(F)cc5)CC4)cc3)c2cc1-c1ccn[nH]1 [Compound 185, 1-N′-(4-fluorophenyl)-1-N-[4-[7-methoxy-6-(1H-pyrazol-5-yl)quinolin-4-yl]oxyphenyl]cyclopropane-1,1-dicarboxamide] | ≤ 10 nM | ≤ 10 nM | 10 to 100 nM | ≤ 10 nM |
| COc1cc2nccc(Oc3ccc(NC(=O)C4(C(=O)Nc5ccc(F)cc5)CC4)cc3)c2cc1-c1ncc[nH]1 [Compound 191, 1-N′-(4-Fluorophenyl)-1-N-[4-[6-(1H-imidazol-2-yl)-7-methoxyquinolin-4-yl]oxyphenyl]cyclopropane-1,1-dicarboxamide] | ≤ 10 nM |  | 10 to 100 nM |  |
| COc1cc2nccc(Oc3ccc(NC(=O)C4(C(=O)Nc5ccc(F)cc5)CC4)cc3)c2cc1C1(O)COC1 [Compound 196, 1-N′-(4-fluorophenyl)-1-N-[4-[6-(3-hydroxyoxetan-3-yl)-7-methoxyquinolin-4-yl]oxyphenyl]cyclopropane-1,1-dicarboxamide] |  | ≤ 10 nM | 10 to 100 nM | ≤ 10 nM |
| COc1cc2nccc(Oc3ccc(NC(=O)C4(C(=O)Nc5ccc(F)cc5)CC4)cc3)c2cc1C1(O)CNC1 [Compound 197, 1-N′-(4-fluorophenyl)-1-N-[4-[6-(3-hydroxyazetidin-3-yl)-7-methoxyquinolin-4-yl]oxyphenyl]cyclopropane-1,1-dicarboxamide] |  | ≤ 10 nM | 100 to 300 nM | ≤ 10 nM |
| COc1cc2nccc(Oc3ccc(NC(=O)C4(C(=O)Nc5ccc(F)cc5)CC4)cc3)c2cc1N1CCC1 [Compound 198, 1-N-[4-[6-(azetidin-1-yl)-7-methoxyquinolin-4-yl]oxyphenyl]-1-N′-(4-fluorophenyl)cyclopropane-1,1-dicarboxamide] |  | 10 to 100 nM | 10 to 100 nM | ≤ 10 nM |
| COc1cc2nccc(Oc3ccc(NC(=O)C4(C(=O)Nc5ccc(F)cc5)CC4)cc3)c2cc1N1CC(O)C1 [Compound 199, 1-N′-(4-fluorophenyl)-1-N-[4-[6-(3-hydroxyazetidin-1-yl)-7-methoxyquinolin-4-yl]oxyphenyl]cyclopropane-1,1-dicarboxamide] |  | ≤ 10 nM | ≤ 10 nM | ≤ 10 nM |
| COc1cc2nccc(Oc3ccc(NC(=O)C4(C(=O)Nc5ccc(F)cc5)CC4)cc3)c2cc1N1CC(F)(F)C1 [Compound 200, 1-N-[4-[6-(3,3-difluoroazetidin-1-yl)-7-methoxyquinolin-4-yl]oxyphenyl]-1-N′-(4-fluorophenyl)cyclopropane-1,1-dicarboxamide] |  | 10 to 100 nM | 10 to 100 nM | ≤ 10 nM |
| COc1cc2nccc(Oc3ccc(NC(=O)C4(C(=O)Nc5ccc(F)cc5)CC4)cc3)c2cc1-c1cccnc1 [Compound 201, 1-N′-(4-Fluorophenyl)-1-N-[4-(7-methoxy-6-pyridin-3-ylquinolin-4-yl)oxyphenyl]cyclopropane-1,1-dicarboxamide] |  | ≤ 10 nM | 10 to 100 nM | ≤ 10 nM |
| COc1cc2nccc(Oc3ccc(NC(=O)C4(C(=O)Nc5ccc(F)cc5)CC4)cc3)c2cc1-c1ccncc1 [Compound 202, 1-N′-(4-Fluorophenyl)-1-N-[4-(7-methoxy-6-pyridin-4-ylquinolin-4-yl)oxyphenyl]cyclopropane-1,1-dicarboxamide] |  | ≤ 10 nM | 10 to 100 nM | ≤ 10 nM |
| COc1cc2nccc(Oc3ccc(NC(=O)C4(C(=O)Nc5ccc(F)cc5)CC4)cc3)c2cc1S(C)(=O)=O [Compound 210, 1-N′-(4-Fluorophenyl)-1-N-[4-(7-methoxy-6-methylsulfonylquinolin-4-yl)oxyphenyl]cyclopropane-1,1-dicarboxamide] |  | ≤ 10 nM | 10 to 100 nM | ≤ 10 nM |
